Measurements: ChEMBL document CHEMBL1641381, “Rapid access to new bioconjugates of betulonic acid via click chemistry” (2011)

Columns and labels:
Format in all cases: functional
Mus musculus [1] = test: Antiinflammatory activity against histamine-induced mouse edema model assessed as inflammation index 20 mg/kg, po (untreated control = 32.6+/-3.1%)
Mus musculus [2] = test: Antiinflammatory activity against histamine-induced mouse edema model assessed as antiinflammatory effect 20 mg/kg, po (untreated control = 0%)
Mus musculus [3] = test: Antiinflammatory activity against histamine-induced mouse edema model assessed as edema size 20 mg/kg, po (untreated control = 100%)
Mus musculus [4] = test: Antiinflammatory activity against histamine-induced mouse edema model assessed as edema size 50 mg/kg, po (untreated control = 100%)
Mus musculus [5] = test: Antioxidant activity agains CCl4-induced hepatitis mouse model assessed as TBARS level in serum at 20 mg/kg, po (untreated control = 100%)
Mus musculus [6] = test: Antiinflammatory activity against histamine-induced mouse edema model assessed as inflammation index 50 mg/kg, po (untreated control = 32.6+/-3.1%)
Mus musculus [7] = test: Antioxidant activity agains CCl4-induced hepatitis mouse model at 20 mg/kg, po (untreated control = 0%)
Mus musculus [8] = test: Antiinflammatory activity against histamine-induced mouse edema model assessed as antiinflammatory effect 50 mg/kg, po (untreated control = 0%)

## C=C(C)[C@@H]1CC[C@]2(C(=O)Nc3ccc(-c4cn(Cc5ccccc5)nn4)cc3)CC[C@]3(C)[C@H](CC[C@@H]4[C@@]5(C)CCC(=O)C(C)(C)[C@@H]5CC[C@]43C)[C@@H]12
Mus musculus [1]
  Activity: 34.1%
Mus musculus [2]
  Activity: 0%
Mus musculus [3]
  level, % of control at 20 mg/kg: 105%
Mus musculus [4]
  level, % of control at 50 mg/kg: 78.5%
Mus musculus [5]
  Activity: 58%
Mus musculus [6]
  Activity: 25.6%
Mus musculus [7]
  Activity: 42%
Mus musculus [8]
  Activity: 21%

## O=C1c2c(O)cc(O)cc2O[C@H](c2ccc(O)c(O)c2)[C@H]1O [(+)-TAXIFOLIN]
Mus musculus [5]
  Activity: 57%
Mus musculus [7]
  Activity: 43%

## C=C(C)[C@@H]1CC[C@]2(C(=O)Nc3ccc(-c4cn(-c5ccc(OC)cc5)nn4)cc3)CC[C@]3(C)[C@H](CC[C@@H]4[C@@]5(C)CCC(=O)C(C)(C)[C@@H]5CC[C@]43C)[C@@H]12
Mus musculus [1]
  Activity: 25.6%
Mus musculus [2]
  Activity: 21%
Mus musculus [3]
  level, % of control at 20 mg/kg: 78.5%
Mus musculus [4]
  level, % of control at 50 mg/kg: 77.9%
Mus musculus [5]
  Activity: 41%
Mus musculus [6]
  Activity: 25.4%
Mus musculus [7]
  Activity: 59%
Mus musculus [8]
  Activity: 22%

## COc1ccc2c(c1)c(CC(=O)O)c(C)n2C(=O)c1ccc(Cl)cc1 [INDOMETHACIN]
Mus musculus [1]
  Activity: 12.2%
Mus musculus [2]
  Activity: 63%
Mus musculus [3]
  level, % of control at 20 mg/kg: 37.4%

## C=C(C)[C@@H]1CC[C@]2(C(=O)Nc3ccc(-c4cn(CCCCCC)nn4)cc3)CC[C@]3(C)[C@H](CC[C@@H]4[C@@]5(C)CCC(=O)C(C)(C)[C@@H]5CC[C@]43C)[C@@H]12
Mus musculus [1]
  Activity: 29%
Mus musculus [2]
  Activity: 11%
Mus musculus [3]
  level, % of control at 20 mg/kg: 89%
Mus musculus [4]
  level, % of control at 50 mg/kg: 87.1%
Mus musculus [5]
  Activity: 66%
Mus musculus [6]
  Activity: 28.4%
Mus musculus [7]
  Activity: 34%
Mus musculus [8]
  Activity: 13%

## C=C(C)[C@@H]1CC[C@]2(C(=O)Nc3ccc(-c4cn(-c5ccc(C(C)=O)cc5)nn4)cc3)CC[C@]3(C)[C@H](CC[C@@H]4[C@@]5(C)CCC(=O)C(C)(C)[C@@H]5CC[C@]43C)[C@@H]12
Mus musculus [1]
  Activity: 35.4%
Mus musculus [2]
  Activity: 0%
Mus musculus [3]
  level, % of control at 20 mg/kg: 109%
Mus musculus [4]
  level, % of control at 50 mg/kg: 74.2%
Mus musculus [5]
  Activity: 40%
Mus musculus [6]
  Activity: 24.2%
Mus musculus [7]
  Activity: 60%
Mus musculus [8]
  Activity: 26%
